Test results published in US20230303544A1, “LMO2 PROTEIN INHIBITORS” (UNIVERSITY OF OXFORD, priority 2020, published 2023).
Entries after “also recorded” stand apart in the source; their conditions may differ.

Legend:
[1] = target: T1, LMO2-iDAb LMO2dm3 interaction (Homo sapiens, UniProt P25791); assay: LMO2-iDAb LMO2dm3 BRET assay; assay type: cell-based; settings: BRET dose response, HEK293T cells, 0.01-50 μM, 22 h
T1 construct: LMO2 cDNA was cloned into the pEF-RLuc8-MCS and pEF-MCS-RLuc8 plasmids; expressed in transfected cells; host or cells: HEK293T
T1 sequence (P25791 1-158): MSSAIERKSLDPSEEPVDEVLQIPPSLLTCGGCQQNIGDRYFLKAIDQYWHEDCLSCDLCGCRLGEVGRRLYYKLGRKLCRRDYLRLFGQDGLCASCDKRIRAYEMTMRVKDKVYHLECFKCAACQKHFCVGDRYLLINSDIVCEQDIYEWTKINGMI
Method: (§1) For all BRET experiments (titration curves and competition assays) 650,000 HEK293T were seeded in each well of a 6 well plates. After 24 hours at 37° C., cells were transfected with a total of 1.6 μg of DNA mix, containing the donor+acceptor±competitor plasmids, using Lipofectamine 2000 transfection reagent (Thermo-Fisher). In dose response competition experiments, competitors were transfected with the following amount of DNA: 0.1; 0.5 and 1 μg. In single dose competition experiments, competitors were transfected with […] of DNA. Cells were detached 24 hours later, washed with PBS and seeded in a white 96-well plate (clear bottom, PerkinElmer, Cat #6005181) in OptiMEM no phenol red medium complemented with 4% FBS and cells were incubated for an additional 20-24 hours at 37° C. before the BRET assay reading. A detailed BRET protocol is provided by Bery and Rabbitts, (2019).
Compounds were prepared in 100% DMSO at 10 mM. For BRET competition assays, cells were treated with the indicated compounds at concentration of 1 (or 5), 10 and 20 μM for 22 h. For BRET-based dose response experiments, cells were treated with compounds at concentration of 0.01, 0.1, 1, 4, 10, 25 and 50 μM for 22 h. The compounds were diluted in the BRET medium: OptiMEM no phenol red (Life Technologies) supplemented with 4% FBS and with a final concentration of 0.2% DMSO.
(§2) BRET2 signal was determined immediately after injection of coelenterazine 400a substrate (10 μM final) to cells (Cayman Chemicals), using a CLARIOstar instrument (BMG Labtech) with a luminescence module. Total GFP^2 fluorescence was detected with excitation and emission peaks set at 405 nm and 515 nm respectively. Total RLuc8 luminescence was measured with the Luminescence 400-700 nm-wavelength filter.
The BRET signal or BRET ratio corresponds to the light emitted by the GFP^2 acceptor constructs (515 nm±30) upon addition of coelenterazine 400a divided by the light emitted by the RLuc8 donor constructs (410 nm±80). The background signal is subtracted from that BRET ratio using the donor-only negative control where only the RLuc8 fusion plasmid is transfected into the cells. The normalized BRET ratio is the BRET ratio normalized to a negative control (iDAb control or DMSO control) during a competition assay. Total GFP^2 and RLuc8 signals were used to control the protein expression from each plasmid.

[2] = target: T2, LMO2-iDAb LMO2 (unmutated iDAb) interaction (Homo sapiens, UniProt P25791); assay: LMO2-iDAb LMO2 (unmutated iDAb) BRET assay; assay type: cell-based; settings: BRET dose response
T2 construct: LMO2 cDNA was cloned into the pEF-RLuc8-MCS and pEF-MCS-RLuc8 plasmids; expressed in transfected cells; host or cells: HEK293T
T2 sequence (P25791 1-158): T1 sequence (P25791 1-158)
Method: as §1
Compounds were prepared in 100% DMSO at 10 mM. […]
as §2, with “filter. […]” for “filter.”

scFv-LMO2 = target: T3, scFv-LMO2 (Homo sapiens, UniProt P25791); assay: Photoaffinity labelling (PAL) pulldown; assay type: binding; settings: 20 μM Abd-L26, UV light, avidin beads
T3 construct: made in house; host or cells: E. coli C41 (DE3)
T3 sequence (P25791 1-158): T1 sequence (P25791 1-158)
Method: 20 μM of Abd-L26 with or without 100 μM of Abd-L9 (competitor) are added in a final volume of 400 μL of PBS with 40 μg of purified protein of interest (scFv-LMO2). The same samples are prepared for the no UV controls. The samples are incubated for 25 minutes at RT. The samples to be crosslinked are put into ice and under the UV lamp for crosslinking for 1 hour. The no UV controls are kept on ice. During the 1 hour of crosslinking, the agarose monomeric avidin beads (Cat #20228, Thermofisher) are washed twice with PBS. After the crosslink, 20 μL of washed beads are added in all the samples (crosslinked and non-crosslinked) and incubated for 2 hours at 4° C. on a roller. 2 hours later, wash the beads three times with 400 μL of PBS. The samples are finally denatured with 50 μL of 2× loading buffer with BME added directly on the beads (and boiled at 100° C. for 5 minutes) and loaded for a western blot analysis.

Compound	IC50 [1] [µM]	concentration at which LMO2-iDAb LMO2 interaction is inhibited [2]	photo-crosslinking to LMO2 protein (pulldown, Western blot) (scFv-LMO2)
COc1cccc(CN2CCN(c3nc(C(=O)Nc4ccc(OC)nc4)cs3)CC2)c1 [Abd-L22, 2-(4-(3-methoxybenzyl)piperazin-1-yl)-N-(6-methoxypyridin-3-yl)thiazole-4-carboxamide]	6.8	above 25 μM	
O=C(CCCC[C@H]1SC[C@H]2NC(=O)N[C@H]21)NCCOCCOCC(=O)Nc1ccc(NC(=O)c2coc(N3CCN(Cc4ccc(C(=O)c5ccccc5)cc4)CC3)n2)cc1 [Abd-L26, 2-(4-(4-benzoylbenzyl)piperazin-1-yl)-N-(4-(2-(2-(2-(5-((3aR,4R,6aS)-2-oxohexahydro-1H-thieno[3,4-d]imidazol-4-yl)pentanamido)ethoxy)ethoxy)acetamido)phenyl)oxazole-4-carboxamide]			observed a biotin labelled protein; also recorded: confirmed binding to LMO2 protein
